Test results from patent US10597388B2, “Pyridazinone herbicides” (FMC CORPORATION, priority 2014, dated 2020).

Columns and labels:
Assay in all cases: Test C greenhouse herbicide test, pre- and postemergence
Type in all cases: in vivo
[1] = test system: velvetleaf (Abutilon theophrasti)
Outline: (§1)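 Visual 0–100 injury score (100 = complete control) taken against untreated controls after 13–15 d in greenhouse. Test chemicals, formulated in solvent plus surfactant, applied preemergence to seeds in loam–sand soil or postemergence to 1- to 4-leaf plants (2–18 cm).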

[2] = test system: blackgrass (Alopecurus myosuroides)
Outline: as §1

[3] = test system: galium (catchweed bedstraw, Galium aparine)
Outline: as §1

[4] = test system: nutsedge, yellow (yellow nutsedge, Cyperus esculentus)
Outline: as §1

[5] = test system: oilseed rape (Brassica napus)
Outline: as §1

[6] = test system: lambsquarters (Chenopodium album)
Outline: as §1

[7] = test system: pigweed (Amaranthus retroflexus)
Outline: as §1

[8] = test system: johnsongrass (Sorghum halepense)
Outline: as §1

[9] = test system: foxtail, giant (giant foxtail, Setaria faberii)
Outline: as §1

[10] = test system: morningglory (Ipomoea coccinea)
Outline: as §1

[11] = test system: crabgrass, large (large crabgrass, Digitaria sanguinalis)
Outline: as §1

[12] = test system: ryegrass, Italian (Italian ryegrass, Lolium multiflorum)
Outline: as §1

[13] = test system: corn (Zea mays)
Outline: as §1

[14] = test system: soybean (Glycine max)
Outline: as §1

[15] = test system: waterhemp (common waterhemp, Amaranthus rudis)
Outline: as §1

[16] = test system: wheat (winter wheat, Triticum aestivum)
Outline: as §1

[17] = Postemergence, 31 g ai/ha, 0 to 100 scale (0 no effect, 100 complete control)
[18] = Postemergence, 125 g ai/ha, scale 0 to 100, 0 is no effect, 100 is complete control
[19] = Postemergence, 250 g ai/ha, scale 0 to 100, 0 no effect, 100 complete control, 13 to 15 d
[20] = Preemergence, 31 g ai/ha, scale 0 to 100, 0 is no effect, 100 is complete control
[21] = Preemergence, 62 g ai/ha, scale 0 to 100, 0 is no effect, 100 is complete control
[22] = Preemergence, 125 g ai/ha, scale 0 to 100, 0 is no effect, 100 is complete control
[23] = Preemergence, 250 g ai/ha, scale 0 to 100 (0 no effect, 100 complete control)
[24] = postemergence, 62 g ai/ha, scale 0 to 100, 0 no effect, 100 complete control

SMILES: CCOC(=O)Oc1c(C)nn(C)c(=O)c1-c1c(C)ccc2ccccc12 [Compound 73]
- Velvetleaf plant response rating [1, 17]: 40
- Plant response rating, Velvetleaf [1, 18]: 85
- Plant response rating, Velvetleaf [1, 19]: 90
- Plant response rating, Velvetleaf [1, 20]: 25
- Plant response rating, Velvetleaf [1, 21]: 80
- Plant response rating, Velvetleaf [1, 22]: 85
- Velvetleaf plant response rating [1, 23]: 85
- Velvetleaf plant response rating [1, 24]: 85
- Blackgrass plant response rating [2, 17]: 40
- Plant response rating, Blackgrass [2, 18]: 90
- Plant response rating, Blackgrass [2, 19]: 90
- Plant response rating, Blackgrass [2, 20]: 50
- Plant response rating, Blackgrass [2, 21]: 80
- Plant response rating, Blackgrass [2, 22]: 85
- Blackgrass plant response rating [2, 23]: 90
- Blackgrass plant response rating [2, 24]: 85
- Galium plant response rating [3, 17]: 90
- Plant response rating, Galium [3, 18]: 95
- Plant response rating, Galium [3, 19]: 95
- Plant response rating, Galium [3, 20]: 90
- Plant response rating, Galium [3, 21]: 98
- Plant response rating, Galium [3, 22]: 95
- Galium plant response rating [3, 23]: 98
- Galium plant response rating [3, 24]: 90
- Nutsedge, Yellow plant response rating [4, 17]: 80
- Plant response rating, Nutsedge, Yellow [4, 18]: 80
- Plant response rating, Nutsedge, Yellow [4, 19]: 90
- Plant response rating, Nutsedge, Yellow [4, 20]: 0
- Plant response rating, Nutsedge, Yellow [4, 21]: 35
- Plant response rating, Nutsedge, Yellow [4, 22]: 50
- Nutsedge, Yellow plant response rating [4, 23]: 95
- Nutsedge, Yellow plant response rating [4, 24]: 80
- Oilseed Rape plant response rating [5, 17]: 10
- Plant response rating, Oilseed Rape [5, 18]: 70
- Plant response rating, Oilseed Rape [5, 19]: 85
- Plant response rating, Oilseed Rape [5, 20]: 90
- Plant response rating, Oilseed Rape [5, 21]: 85
- Plant response rating, Oilseed Rape [5, 22]: 90
- Oilseed Rape plant response rating [5, 23]: 85
- Oilseed Rape plant response rating [5, 24]: 70
- Lambsquarters plant response rating [6, 17]: 90
- Plant response rating, Lambsquarters [6, 18]: 95
- Plant response rating, Lambsquarters [6, 19]: 98
- Plant response rating, Lambsquarters [6, 20]: 75
- Plant response rating, Lambsquarters [6, 21]: 70
- Plant response rating, Lambsquarters [6, 22]: 80
- Lambsquarters plant response rating [6, 23]: 90
- Lambsquarters plant response rating [6, 24]: 95
- Pigweed plant response rating [7, 17]: 80
- Plant response rating, Pigweed [7, 18]: 95
- Plant response rating, Pigweed [7, 19]: 98
- Plant response rating, Pigweed [7, 20]: 95
- Plant response rating, Pigweed [7, 21]: 100
- Plant response rating, Pigweed [7, 22]: 100
- Pigweed plant response rating [7, 23]: 98
- Pigweed plant response rating [7, 24]: 85
- Johnsongrass plant response rating [8, 17]: 5
- Plant response rating, Johnsongrass [8, 18]: 40
- Plant response rating, Johnsongrass [8, 19]: 50
- Plant response rating, Johnsongrass [8, 20]: 0
- Plant response rating, Johnsongrass [8, 21]: 10
- Plant response rating, Johnsongrass [8, 22]: 35
- Johnsongrass plant response rating [8, 23]: 55
- Johnsongrass plant response rating [8, 24]: 5
- Foxtail, Giant plant response rating [9, 17]: 40
- Plant response rating, Foxtail, Giant [9, 18]: 75
- Plant response rating, Foxtail, Giant [9, 19]: 85
- Plant response rating, Foxtail, Giant [9, 20]: 55
- Plant response rating, Foxtail, Giant [9, 21]: 70
- Plant response rating, Foxtail, Giant [9, 22]: 85
- Foxtail, Giant plant response rating [9, 23]: 95
- Foxtail, Giant plant response rating [9, 24]: 65
- Morningglory plant response rating [10, 17]: 75
- Plant response rating, Morningglory [10, 18]: 95
- Plant response rating, Morningglory [10, 19]: 95
- Plant response rating, Morningglory [10, 20]: 85
- Plant response rating, Morningglory [10, 21]: 90
- Plant response rating, Morningglory [10, 22]: 90
- Morningglory plant response rating [10, 23]: 95
- Morningglory plant response rating [10, 24]: 90
- Crabgrass, Large plant response rating [11, 17]: 30
- Plant response rating, Crabgrass, Large [11, 18]: 60
- Plant response rating, Crabgrass, Large [11, 19]: 75
- Plant response rating, Crabgrass, Large [11, 20]: 0
- Plant response rating, Crabgrass, Large [11, 21]: 30
- Plant response rating, Crabgrass, Large [11, 22]: 75
- Crabgrass, Large plant response rating [11, 23]: 75
- Crabgrass, Large plant response rating [11, 24]: 35
- Ryegrass, Italian plant response rating [12, 17]: 85
- Plant response rating, Ryegrass, Italian [12, 18]: 90
- Plant response rating, Ryegrass, Italian [12, 19]: 90
- Plant response rating, Ryegrass, Italian [12, 20]: 75
- Plant response rating, Ryegrass, Italian [12, 21]: 90
- Plant response rating, Ryegrass, Italian [12, 22]: 90
- Ryegrass, Italian plant response rating [12, 23]: 90
- Ryegrass, Italian plant response rating [12, 24]: 90
- Corn plant response rating [13, 17]: 5
- Plant response rating, Corn [13, 18]: 20
- Plant response rating, Corn [13, 19]: 60
- Plant response rating, Corn [13, 20]: 0
- Plant response rating, Corn [13, 21]: 0
- Plant response rating, Corn [13, 22]: 5
- Corn plant response rating [13, 23]: 25
- Corn plant response rating [13, 24]: 20
- Soybean plant response rating [14, 17]: 0
- Plant response rating, Soybean [14, 18]: 25
- Plant response rating, Soybean [14, 19]: 45
- Plant response rating, Soybean [14, 20]: 0
- Plant response rating, Soybean [14, 21]: 0
- Plant response rating, Soybean [14, 22]: 0
- Soybean plant response rating [14, 23]: 0
- Soybean plant response rating [14, 24]: 15
- Waterhemp plant response rating [15, 17]: 75
- Plant response rating, Waterhemp [15, 18]: 85
- Plant response rating, Waterhemp [15, 19]: 100
- Plant response rating, Waterhemp [15, 20]: 85
- Plant response rating, Waterhemp [15, 21]: 90
- Plant response rating, Waterhemp [15, 22]: 90
- Waterhemp plant response rating [15, 23]: 95
- Waterhemp plant response rating [15, 24]: 75
- Wheat plant response rating [16, 17]: 10
- Plant response rating, Wheat [16, 18]: 35
- Plant response rating, Wheat [16, 19]: 40
- Plant response rating, Wheat [16, 20]: 0
- Plant response rating, Wheat [16, 21]: 20
- Plant response rating, Wheat [16, 22]: 35
- Wheat plant response rating [16, 23]: 60
- Wheat plant response rating [16, 24]: 30
